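Cultured in 96-well plates, cells were exposed to test compound for 48 hours across five concentrations. TGI: concentration producing complete growth inhibition.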
Assays:
Experiment in all cases: DTP human tumour cell line panel, 48 h
786-0 renal = system: 786-0 renal
A498 renal = system: A498 renal
A549 NSCLC = system: A549 NSCLC
ACHN renal = system: ACHN renal
CAKI-1 renal = system: CAKI-1 renal
CCRF-CEM leukemia = system: CCRF-CEM leukemia
COLO 205 colon = system: COLO 205 colon
DLD-1 colon = system: DLD-1 colon
DMS 114 small cell lung = system: DMS 114 small cell lung
DMS 273 small cell lung = system: DMS 273 small cell lung
EKVX NSCLC = system: EKVX NSCLC
HCC-2998 colon = system: HCC-2998 colon
HCT-116 colon = system: HCT-116 colon
HCT-15 colon = system: HCT-15 colon
HOP-62 NSCLC = system: HOP-62 NSCLC
HOP-92 NSCLC = system: HOP-92 NSCLC
HT29 colon = system: HT29 colon
IGROV1 ovarian = system: IGROV1 ovarian
K-562 leukemia = system: K-562 leukemia
KM12 colon = system: KM12 colon
LOX IMVI melanoma = system: LOX IMVI melanoma
LXFL 529 NSCLC = system: LXFL 529 NSCLC
M14 melanoma = system: M14 melanoma
MALME-3M melanoma = system: MALME-3M melanoma
MOLT-4 leukemia = system: MOLT-4 leukemia
NCI-H226 lung = system: NCI-H226 lung
NCI-H23 lung = system: NCI-H23 lung
NCI-H460 lung = system: NCI-H460 lung
NCI-H522 lung = system: NCI-H522 lung
OVCAR-3 ovarian = system: OVCAR-3 ovarian
OVCAR-4 ovarian = system: OVCAR-4 ovarian
OVCAR-5 ovarian = system: OVCAR-5 ovarian
OVCAR-8 ovarian = system: OVCAR-8 ovarian
RXF 393 renal = system: RXF 393 renal
SF-268 CNS = system: SF-268 CNS
SF-295 CNS = system: SF-295 CNS
SF-539 CNS = system: SF-539 CNS
SK-MEL-2 melanoma = system: SK-MEL-2 melanoma
SK-MEL-28 melanoma = system: SK-MEL-28 melanoma
SK-MEL-5 melanoma = system: SK-MEL-5 melanoma
SK-OV-3 ovarian = system: SK-OV-3 ovarian
SN12C renal = system: SN12C renal
SNB-75 CNS = system: SNB-75 CNS
SNB-78 CNS = system: SNB-78 CNS
SR leukemia = system: SR leukemia
SW-620 colon = system: SW-620 colon
TK-10 renal = system: TK-10 renal
U251 CNS = system: U251 CNS
UACC-257 melanoma = system: UACC-257 melanoma
UACC-62 melanoma = system: UACC-62 melanoma
UO-31 renal = system: UO-31 renal
HL-60(TB) leukemia = system: HL-60(TB) leukemia
HOP-18 NSCLC = system: HOP-18 NSCLC
KM20L2 colon = system: KM20L2 colon
M19-MEL melanoma = system: M19-MEL melanoma
RPMI-8226 leukemia = system: RPMI-8226 leukemia
SNB-19 CNS = system: SNB-19 CNS

Question: For C=C1C(=O)OC2/C=C(\C)C3OC3/C=C(/C(=O)OC)C(O)C(OC(=O)C3(C)OC3C)C12 (stereo not given), which TGI (786-0 renal) is on record?
Answer: Its TGI is 3.26 µM.

Question: What about the TGI (A498 renal) of the same molecule?
Answer: The TGI was 19.6 µM.

Question: What about the TGI (A549 NSCLC) of the same molecule?
Answer: Its TGI is 32 µM.

Question: And the TGI (ACHN renal)?
Answer: Its TGI is 10.7 µM.

Question: And the TGI (CAKI-1 renal)?
Answer: Its TGI is 4.97 µM.

Question: And the TGI (CCRF-CEM leukemia)?
Answer: Its TGI is 2.63 µM.

Question: And the TGI (COLO 205 colon)?
Answer: The TGI was 2.52 µM.

Question: And the TGI (DLD-1 colon)?
Answer: Its TGI is 2.94 µM.

Question: And the TGI (DMS 114 small cell lung)?
Answer: The TGI was 1.94 µM.

Question: What about the TGI (DMS 273 small cell lung) of the same molecule?
Answer: The TGI was 3.02 µM.

Question: What about the TGI (EKVX NSCLC) of the same molecule?
Answer: The TGI was 7.44 µM.

Question: What about the TGI (HCC-2998 colon) of the same molecule?
Answer: Its TGI is 4.66 µM.

Question: What about the TGI (HCT-116 colon) of the same molecule?
Answer: The TGI was 2.43 µM.

Question: What about the TGI (HCT-15 colon) of the same molecule?
Answer: Its TGI is 3.78 µM.

Question: And the TGI (HOP-62 NSCLC)?
Answer: The TGI was 35.8 µM.

Question: And the TGI (HOP-92 NSCLC)?
Answer: The TGI was 5.68 µM.

Question: And the TGI (HT29 colon)?
Answer: Its TGI is 3.63 µM.

Question: And the TGI (IGROV1 ovarian)?
Answer: Its TGI is 8.45 µM.

Question: And the TGI (K-562 leukemia)?
Answer: The TGI was 14.3 µM.

Question: And the TGI (KM12 colon)?
Answer: Its TGI is 11.2 µM.

Question: What about the TGI (LOX IMVI melanoma) of the same molecule?
Answer: The TGI was 3.75 µM.

Question: And the TGI (LXFL 529 NSCLC)?
Answer: The TGI was 2.8 µM.

Question: What about the TGI (M14 melanoma) of the same molecule?
Answer: Its TGI is 4.7 µM.

Question: And the TGI (MALME-3M melanoma)?
Answer: The TGI was 3.21 µM.

Question: What about the TGI (MOLT-4 leukemia) of the same molecule?
Answer: Its TGI is 4.05 µM.

Question: And the TGI (NCI-H226 lung)?
Answer: The TGI was 32.2 µM.

Question: And the TGI (NCI-H23 lung)?
Answer: The TGI was 3.5 µM.

Question: What about the TGI (NCI-H460 lung) of the same molecule?
Answer: The TGI was 17.8 µM.

Question: And the TGI (NCI-H522 lung)?
Answer: Its TGI is 0.6 µM.

Question: And the TGI (OVCAR-3 ovarian)?
Answer: The TGI was 10 µM.

Question: What about the TGI (OVCAR-4 ovarian) of the same molecule?
Answer: Its TGI is 8.77 µM.

Question: What about the TGI (OVCAR-5 ovarian) of the same molecule?
Answer: The TGI was 30.4 µM.

Question: And the TGI (OVCAR-8 ovarian)?
Answer: The TGI was 5.85 µM.

Question: And the TGI (RXF 393 renal)?
Answer: The TGI was 2.22 µM.

Question: And the TGI (SF-268 CNS)?
Answer: The TGI was 29.9 µM.

Question: What about the TGI (SF-295 CNS) of the same molecule?
Answer: The TGI was 27 µM.

Question: And the TGI (SF-539 CNS)?
Answer: The TGI was 5.46 µM.

Question: What about the TGI (SK-MEL-2 melanoma) of the same molecule?
Answer: Its TGI is 6.46 µM.

Question: What about the TGI (SK-MEL-28 melanoma) of the same molecule?
Answer: The TGI was 3.17 µM.

Question: What about the TGI (SK-MEL-5 melanoma) of the same molecule?
Answer: Its TGI is 3.42 µM.

Question: What about the TGI (SK-OV-3 ovarian) of the same molecule?
Answer: Its TGI is 26.4 µM.

Question: What about the TGI (SN12C renal) of the same molecule?
Answer: The TGI was 5.64 µM.

Question: What about the TGI (SNB-75 CNS) of the same molecule?
Answer: The TGI was 26.3 µM.

Question: What about the TGI (SNB-78 CNS) of the same molecule?
Answer: Its TGI is 3.97 µM.

Question: And the TGI (SR leukemia)?
Answer: The TGI was 3.05 µM.

Question: And the TGI (SW-620 colon)?
Answer: The TGI was 3.1 µM.

Question: What about the TGI (TK-10 renal) of the same molecule?
Answer: The TGI was 9.14 µM.

Question: And the TGI (U251 CNS)?
Answer: The TGI was 16.8 µM.

Question: And the TGI (UACC-257 melanoma)?
Answer: Its TGI is 3.45 µM.

Question: And the TGI (UACC-62 melanoma)?
Answer: Its TGI is 5.19 µM.

Question: And the TGI (UO-31 renal)?
Answer: Its TGI is 27.3 µM.

Question: Which results are given for CO[C@H]1ON=C(c2c(C)cc(C)cc2C)[C@@H]1C1(c2ccccc2)ON=C(c2c(C)cc(C)cc2C)O1 (stereo not given in full)?
Answer: TGI (A549 NSCLC): > 100 µM; TGI (ACHN renal): > 100 µM; TGI (CCRF-CEM leukemia): > 100 µM; TGI (COLO 205 colon): > 100 µM; TGI (DLD-1 colon): > 100 µM; TGI (DMS 273 small cell lung): > 100 µM; TGI (EKVX NSCLC): > 100 µM; TGI (HCC-2998 colon): > 100 µM; TGI (HCT-116 colon): > 100 µM; TGI (HL-60(TB) leukemia): > 100 µM; TGI (HOP-18 NSCLC): > 100 µM; TGI (HOP-92 NSCLC): > 100 µM; TGI (IGROV1 ovarian): > 100 µM; TGI (K-562 leukemia): > 100 µM; TGI (KM12 colon): > 100 µM; TGI (KM20L2 colon): > 100 µM; TGI (LOX IMVI melanoma): > 100 µM; TGI (LXFL 529 NSCLC): > 100 µM; TGI (M19-MEL melanoma): > 100 µM; TGI (MALME-3M melanoma): > 100 µM; TGI (MOLT-4 leukemia): > 100 µM; TGI (NCI-H23 lung): > 100 µM; TGI (NCI-H460 lung): > 100 µM; TGI (NCI-H522 lung): > 100 µM; TGI (OVCAR-5 ovarian): > 100 µM; TGI (OVCAR-8 ovarian): > 100 µM; TGI (RPMI-8226 leukemia): > 100 µM; TGI (RXF 393 renal): > 100 µM; TGI (SF-268 CNS): > 100 µM; TGI (SF-295 CNS): > 100 µM; TGI (SF-539 CNS): > 100 µM; TGI (SK-MEL-2 melanoma): > 100 µM; TGI (SK-MEL-28 melanoma): > 100 µM; TGI (SK-OV-3 ovarian): > 100 µM; TGI (SN12C renal): > 100 µM; TGI (SNB-19 CNS): > 100 µM; TGI (SNB-78 CNS): > 100 µM; TGI (SR leukemia): > 100 µM; TGI (SW-620 colon): > 100 µM; TGI (TK-10 renal): > 100 µM; TGI (U251 CNS): > 100 µM; TGI (UACC-257 melanoma): > 100 µM; TGI (UACC-62 melanoma): > 100 µM; TGI (UO-31 renal): > 100 µM

Source: PubChem BioAssay (NCI)
